Active and inactive are the calls of the source. The rule behind the calls is not given here.
Experiments:
[1] = tested on: S. cerevisiae wild-type background strain growth inhibition; test: growth inhibition of vps1Δ apl2Δ yeast, dose response, post-Golgi transport modulator project, S. cerevisiae, background strain comparison (AID 788); conditions: S. cerevisiae vps1Δ apl2Δ growth inhibition, dose response; measured here: wild-type background strain growth
[2] = tested on: S. cerevisiae vps1Δ apl2Δ growth inhibition, dose response; test: as above

Structure (SMILES) | IC50 [1] | IC50 [2]
O=C(Nc1cccc(Cl)c1)N1CCN(C/C=C/c2ccccc2)CC1 | > 10 µM | > 10 µM (inactive)
CC1CC(C)CN(CCOc2ccc(Cl)cc2Cl)C1 (stereo not drawn) | > 10 µM | 6.68 µM
Cc1cc(Cl)cc(C)c1OCCCCN1CCOCC1 | > 10 µM | > 10 µM (inactive)
CCN(CC)CCn1nc(C)nc1-c1ccccc1O | > 10 µM | > 10 µM (inactive)
CC(NC(=O)CSc1nc2c(cc1C#N)CN(C)CC2)c1ccccc1 (stereo not drawn) | > 10 µM | > 10 µM (inactive)
O=S(=O)(c1ccc(Cl)cc1)N1CCN(C2CCN(Cc3ccccc3)CC2)CC1 | > 10 µM | 5.15 µM
O=C(NCC(c1cccnc1)N1CCN(c2ccccc2)CC1)c1ccc2c(c1)OCO2 (stereo not drawn) | > 10 µM | > 10 µM (inactive)
C/C(CCC12CC3CC(CC(C3)C1)C2)=N\NC(N)=S | 5.28 µM | 1.65 µM
Cc1cc(O)c(/C=N/Nc2ccc(Cl)cc2)c(=O)o1 | 4.69 µM | 3.33 µM
CCCCCOc1ccc(CN2CCOCC2)cc1Cl | > 10 µM | 3.92 µM
O=C(Nc1cc(C(F)(F)F)ccc1-n1cncn1)c1ccc(-c2ccccc2)cc1 | > 10 µM | > 10 µM (inactive)
Cc1cc2ncn(CC(O)COc3cccc(C(=O)O)c3)c2cc1C (stereo not drawn) | > 10 µM | > 10 µM (inactive)
Cc1ccc(Cl)c(OCCCCN(C)Cc2ccccc2)c1 | > 10 µM | 3.13 µM
O=C(N/N=C/c1ccc(OC(=O)c2ccccc2)cc1)c1ccc(CN2CCOCC2)cc1 | > 10 µM | > 10 µM (inactive)
CCCC(=O)N1CCN(c2ccc(NC(=O)c3cc4ccccc4o3)cc2Cl)CC1 | 19.2 µM | 20.8 µM (inactive)
O=S(=O)(c1cnccc1N1CCN(/N=C/c2ccc(Br)cc2)CC1)N1CCCCC1 | > 10 µM | > 10 µM (inactive)
CC(C)OC(=O)CSc1nnc(-c2ccc(Cl)cc2)n1N | > 10 µM | > 10 µM (inactive)
CCc1ccc(N(C(=O)c2csnn2)C(C(=O)NC(C)(C)C)c2ccncc2)cc1 (stereo not drawn) | > 10 µM | > 10 µM (inactive)
COc1cccc(OCCCCN2CC(C)OC(C)C2)c1 (stereo not drawn) | > 10 µM | 4.38 µM
C=CCc1ccc(OCC(O)CN2CCC(Cc3ccccc3)CC2)c(OC)c1 (stereo not drawn) | 19.1 µM | 4.2 µM
COc1ccc(NC(=S)NC(NC(=O)c2ccc(Cl)cc2Cl)C(Cl)(Cl)Cl)c([N+](=O)[O-])c1 (stereo not drawn) | > 10 µM | > 10 µM (inactive)

Structure (SMILES) | IC50 [1] | IC50 [2]
CCCC(=O)Nc1ccc(Cl)c(NC(=O)c2cccnc2Cl)c1 | > 10 µM | > 10 µM (inactive)
N#Cc1nc(COc2ccc(-c3ccccc3)cc2)oc1NCCCN1CCOCC1 | 15.4 µM | 13.8 µM
Clc1ccc(-c2n[nH]c3c2CCC3)c(Cl)c1 | 0.518 µM | 1.04 µM (inactive)
Cc1cc(C)nc(NC(=O)CSc2nn(C)c(=S)s2)n1 | > 10 µM | > 10 µM (inactive)
Cc1ccc(C(=O)NCc2occc2C(=O)O)o1 | > 10 µM | > 10 µM (inactive)
CC(C)(C)n1nnnc1CN(Cc1cccnc1)Cc1ccccc1Cl | > 10 µM | > 10 µM (inactive)
CCN(CC)CCCN(Cc1cc2cc3c(cc2[nH]c1=O)OCCO3)C(=O)Nc1ccc(F)cc1 | > 10 µM | > 10 µM (inactive)
CC1CCCN(CCOCCOc2ccc(Cl)cc2Br)C1 (stereo not drawn) | > 10 µM | 2.5 µM
Cc1nc(NC(=O)c2ccccc2)sc1-c1csc(NCc2ccccc2)n1 | > 10 µM | 3.54 µM
OC(COCc1ccc(Cl)cc1)CN1CC=C(c2ccccc2)CC1 (stereo not drawn) | 20.8 µM | 4.71 µM
Cn1c2ccc(Cl)cc2c2nc3ccccc3nc21 | > 10 µM | > 10 µM (inactive)
CC(C)c1ccc(C2C3CSCC=C3C(C#N)=C(N)C2(C#N)C#N)cc1 (stereo not drawn) | 0.843 µM | 2.08 µM (inactive)
O=C(CC(=O)c1cc(Cl)ccc1O)c1ccccc1 | 12.7 µM | 9.8 µM
Cc1ccc(SC(=O)COc2ccc(C)c(C)c2)cc1 | > 10 µM | > 10 µM (inactive)
N#CC1=C(N)C(C#N)(C#N)C(c2cccnc2)C2CC(c3ccccc3)CC=C12 (stereo not drawn) | 2.97 µM | 2.89 µM
Cc1ccn2cc(-c3nonc3C)cc2c1 | > 10 µM | > 10 µM (inactive)
Fc1ccc(Cn2nnc(-c3ccc(CN4CCOCC4)cc3)n2)cc1 | > 10 µM | 5.15 µM
Cc1ccc2nc(C)cc(OCC(=O)O)c2c1 | > 10 µM | > 10 µM (inactive)
O=C(NCc1ccc2c(c1)OCO2)C1CCCN1C(=O)Nc1ccccc1 (stereo not drawn) | > 10 µM | > 10 µM (inactive)
Cc1c(Cc2ccccc2)c(=O)oc2c(C)c(OCc3nn[nH]n3)ccc12 | > 10 µM | > 10 µM (inactive)
Fc1ccc(-c2noc(C3CCN(Cc4cccnc4)CC3)n2)cc1 | > 10 µM | 6.05 µM

Structure (SMILES) | IC50 [1] | IC50 [2]
O=C1NC2(Nc3ccccc31)C(=O)Nc1ccccc12 (stereo not drawn) | > 10 µM | > 10 µM (inactive)
COc1ccc(-c2cc(N)n(S(=O)(=O)c3c(F)c(F)c(F)c(F)c3F)n2)cc1OC | 1.08 µM | 2.5 µM (inactive)
Cc1ccc(-c2csc3nnc(SCC(=O)Nc4cccc(C)n4)n23)cc1 | > 10 µM | > 10 µM (inactive)
Cc1cccnc1Nc1nc(-c2ccccn2)cs1 | > 10 µM | 22.7 µM
CCCCC(c1nnnn1Cc1ccco1)N1CCN(c2nc3ccccc3s2)CC1 (stereo not drawn) | 3.9 µM | 19.7 µM (inactive)
CCn1c(SCC(=O)N2CCCc3ccccc32)nnc1-c1ccco1 | > 10 µM | > 10 µM (inactive)
COc1cc(CN2CCN(c3ccc(C)cc3)CC2)cc([N+](=O)[O-])c1O | > 10 µM | > 10 µM (inactive)
Cc1cc(C)c2c(c1)/C(=C/C(=O)c1ccc(Br)s1)C(=O)N2 | 1.42 µM | 2.73 µM (inactive)
CC1CCCCC1NC(=O)CSc1nnnn1-c1ccccc1 (stereo not drawn) | > 10 µM | > 10 µM (inactive)
CCOC(=O)Cn1cc(C=O)c2ccccc21 | > 10 µM | > 10 µM (inactive)
COc1ccc(CN(C(=O)Cc2cccs2)C(C(=O)NC2CCCC2)c2ccncc2)cc1 (stereo not drawn) | > 10 µM | > 10 µM (inactive)
N#Cc1cn(-c2ccccc2)nc1-c1cc2ccccc2oc1=O | > 10 µM | > 10 µM (inactive)
Cc1ccc(CSc2nc3ccccc3cc2C=O)cc1 | 2.1 µM | 2.37 µM (inactive)
COc1cccc(C(=O)N2CCN(C3CCC(c4ccccc4)CC3)CC2)c1OC (stereo not drawn) | 23.9 µM | 5.37 µM
Cn1c(=O)c2nc(NCc3ccccc3)cnc2n(C)c1=O | > 10 µM | > 10 µM (inactive)
c1ccc(-c2ccc(-c3cnc4n3CCCCC4)cc2)cc1 | > 10 µM | > 10 µM (inactive)
COc1ccc2c(c1)C(C)=CC(C)(C)N2C(=O)CSc1nnc(-c2ccc(C)cc2)o1 | > 10 µM | > 10 µM (inactive)
C=CCc1ccc(OCCCCN2CC(C)OC(C)C2)c(OC)c1 (stereo not drawn) | > 10 µM | 2.33 µM
Cc1ccc(C(=O)OCn2ncc(Cl)c(Cl)c2=O)cc1 | 4.62 µM | 4.22 µM
COc1ccc(C2C3=C(CCCC3=O)Nc3nc(-c4cc(OC)c(OC)c(OC)c4)nn32)cc1OC (stereo not drawn) | > 10 µM | > 10 µM (inactive)
Cc1cccc(OCC(=O)O/N=C(\N)Cc2ccc(Cl)cc2)c1 | 10.4 µM | > 10 µM (inactive)

Structure (SMILES) | IC50 [1] | IC50 [2]
CCOC(=O)N1CCN(c2ccc(S(=O)(=O)N(Cc3ccccc3)Cc3ccccc3)cn2)CC1 | > 10 µM | > 10 µM (inactive)
COc1ccccc1N1CCN(C2CCN(C(=O)c3cc(OC)c(OC)c(OC)c3)CC2)CC1 | > 10 µM | > 10 µM (inactive)
CCOC(=O)Cc1c(C)c2ccc(N(CC)CC)cc2oc1=O | > 10 µM | > 10 µM (inactive)
COC(=O)c1ccc(CSc2nnc(NC(C)C)s2)cc1 | > 10 µM | > 10 µM (inactive)
COC(=O)c1ccc(NC(=O)c2cn(-c3ccccc3)nc2-c2ccncc2)cc1 | > 10 µM | > 10 µM (inactive)
CCn1c(-c2c[nH]c3ccccc23)n[nH]c1=S | > 10 µM | > 10 µM (inactive)
c1ccc(Nc2cc(-c3ccccc3)nc3ncnn23)cc1 | > 10 µM | 6.29 µM
O=C(COc1ccc(Br)cc1F)NC1CCN(Cc2ccccc2)CC1 | > 10 µM | 3.05 µM
O=C1CN(C(=O)CSc2nnc(-c3ccccc3)n2Cc2ccc3c(c2)OCO3)c2ccccc2N1 | > 10 µM | > 10 µM (inactive)
Cc1ccc(S(=O)(=O)N2CC3CC(C2)c2cccc(=O)n2C3)cc1 (stereo not drawn) | > 10 µM | > 10 µM (inactive)
CCN(CC)C(=O)C1CCN(Cc2ccc(Br)cc2)CC1 | > 10 µM | > 10 µM (inactive)
Cc1ccc(CN2CCN(/N=C/c3cc(Br)ccc3O)CC2)cc1 | > 10 µM | 4.32 µM
O=C(NCC(c1cccnc1)N1CCN(c2ccccc2)CC1)C1CCCCC1 (stereo not drawn) | > 10 µM | > 10 µM (inactive)
O=C(C1COc2ccccc2O1)N1CCN(Cc2ccc3c(c2)OCO3)CC1 (stereo not drawn) | > 10 µM | 10.4 µM
C=CCc1ccccc1OCC(O)CN1CCN(Cc2ccc3c(c2)OCO3)CC1 (stereo not drawn) | > 10 µM | 4.4 µM
Cc1nc(NC(=O)c2ccccc2)sc1-c1csc(Nc2ccc(F)cc2)n1 | > 10 µM | > 10 µM (inactive)
c1coc(CNc2nc(N3CCCCC3)nc3ccccc23)c1 | > 10 µM | > 10 µM (inactive)
O=C1OCC(CO)(CO)N=C1NNc1ccc(Cl)c(Cl)c1 | 3.35 µM | 2.85 µM
O=C1c2cccc3c([N+](=O)[O-])ccc(c23)C(=O)N1c1ccc(Cl)cn1 | 6.08 µM | 18 µM (inactive)
CCOc1cccc(C(=O)Nc2cccnc2)c1 | > 10 µM | > 10 µM (inactive)
CCC(OC(=O)C(NC(=O)c1ccccc1)c1ccccc1)C(=O)Nc1cc(C)on1 (stereo not drawn) | > 10 µM | > 10 µM (inactive)

— PubChem BioAssay AID788 (SRMLSC, 2007)
